Measurements as given in patent US20230373985A1 (Origenis Gmbh, priority 2020, published 2023).
pIC50: −log10 of the molar value.

Legend:
[1] = target: T1, wt human LRRK2, catalytic site (Homo sapiens, UniProt Q5S007); assay: TR-FRET LanthaScreen Eu Kinase Binding Assay, LRRK2 wt; conditions: one range stated for wt and G2019, read-out: IC50, Activity Toward LRRK2(Wt)
T1 construct: 5 nM wt human LRRK2, catalytic site; purchased ThermoFisher
Method: (§1) The basic protocol for TR-FRET LanthaScreen Eu Kinase Binding Assay inhibitor studies were performed as follows. LanthaScreen Kinase Binding Assays (ThermoFisher/USA) to evaluate inhibitors were performed by addition of 5 μL of test compound in corresponding DMSO dilutions/5 μl of kinase/antibody mixture, 5 μL of tracer into 384 well small volume plates. After incubation for 1 hour at room temperature, plates were read. Data analysis of emission ratios was according LanthaScreen Eu Kinase Binding Assay protocol.
(§2) Kinase and assay components were adjusted to final concentrations according to kit protocol. For LRRK2: 5 nM wt human LRRK2, catalytic site, or G2019S human LRRK2, catalytic site (ThermoFisher/USA), 2 nM Eu-Anti-GST Antibody, 10 nM Kinase Tracer 236 in 1× Kinase Buffer A. For NUAK1: 8 nM wt human NUAK1, full length (ThermoFisher/USA), 2 nM Eu-Anti-His Antibody, 5 nM Kinase Tracer 236 in 1× Kinase Buffer A.

[2] = target: T2, wt human JAK1, catalytic site (Homo sapiens, UniProt P23458); assay: HTRF KinEASE assay, JAK1; assay type: biochemical; conditions: 2.5 μM ATP; read-out: IC50, Activity Toward JAK1
T2 construct: wt human JAK1, catalytic site; purchased ThermoFisher
How it was run: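 Two-step HTRF KinEASE assay: compound, kinase/biotinylated TK substrate and ATP were incubated at least 30 min at room temperature. Antibody plus streptavidin-XL665 was then added and plates were read after 60 min. Inhibition was derived from emission ratios according to the kit protocol.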

[3] = target: T3, wt human TYK2, catalytic site (Homo sapiens, UniProt P29597); assay: HTRF KinEASE assay, TYK2; assay type: biochemical; conditions: 1 μM ATP; read-out: IC50, Activity Toward TYK2
T3 construct: wt human TYK2, catalytic site; purchased SignalChem
T3 sequence (P29597 897-1176 limits assumed): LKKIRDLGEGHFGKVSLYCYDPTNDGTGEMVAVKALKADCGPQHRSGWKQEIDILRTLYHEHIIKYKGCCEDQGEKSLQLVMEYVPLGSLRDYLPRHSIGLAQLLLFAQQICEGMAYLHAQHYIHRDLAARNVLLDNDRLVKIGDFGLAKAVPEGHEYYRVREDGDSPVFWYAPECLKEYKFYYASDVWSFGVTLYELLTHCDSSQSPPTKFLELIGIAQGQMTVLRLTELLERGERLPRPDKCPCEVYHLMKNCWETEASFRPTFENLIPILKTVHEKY
How it was run: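 HTRF KinEASE-TK readout with 1 μM biotinylated TK substrate in 1× kinase buffer, ≥30 min at room temperature, then antibody/streptavidin-XL665 detection for 60 min. TYK2 at 2 nM with 1 μM ATP; JAK2 at 1 nM with 100 μM ATP. Analysis uses emission ratios.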

[4] = target: T4, G2019S human LRRK2, catalytic site (Homo sapiens, UniProt Q5S007, G2019S); assay: TR-FRET LanthaScreen Eu Kinase Binding Assay, LRRK2 G2019S; conditions: LRRK2(G2019); one range stated for wt and G2019; read-out: IC50, Activity Toward LRRK2(G2019)
T4 construct: G2019S human LRRK2, catalytic site; purchased ThermoFisher
Method: as §1, §2

T1 sequence (Q5S007 970-2527 limits assumed): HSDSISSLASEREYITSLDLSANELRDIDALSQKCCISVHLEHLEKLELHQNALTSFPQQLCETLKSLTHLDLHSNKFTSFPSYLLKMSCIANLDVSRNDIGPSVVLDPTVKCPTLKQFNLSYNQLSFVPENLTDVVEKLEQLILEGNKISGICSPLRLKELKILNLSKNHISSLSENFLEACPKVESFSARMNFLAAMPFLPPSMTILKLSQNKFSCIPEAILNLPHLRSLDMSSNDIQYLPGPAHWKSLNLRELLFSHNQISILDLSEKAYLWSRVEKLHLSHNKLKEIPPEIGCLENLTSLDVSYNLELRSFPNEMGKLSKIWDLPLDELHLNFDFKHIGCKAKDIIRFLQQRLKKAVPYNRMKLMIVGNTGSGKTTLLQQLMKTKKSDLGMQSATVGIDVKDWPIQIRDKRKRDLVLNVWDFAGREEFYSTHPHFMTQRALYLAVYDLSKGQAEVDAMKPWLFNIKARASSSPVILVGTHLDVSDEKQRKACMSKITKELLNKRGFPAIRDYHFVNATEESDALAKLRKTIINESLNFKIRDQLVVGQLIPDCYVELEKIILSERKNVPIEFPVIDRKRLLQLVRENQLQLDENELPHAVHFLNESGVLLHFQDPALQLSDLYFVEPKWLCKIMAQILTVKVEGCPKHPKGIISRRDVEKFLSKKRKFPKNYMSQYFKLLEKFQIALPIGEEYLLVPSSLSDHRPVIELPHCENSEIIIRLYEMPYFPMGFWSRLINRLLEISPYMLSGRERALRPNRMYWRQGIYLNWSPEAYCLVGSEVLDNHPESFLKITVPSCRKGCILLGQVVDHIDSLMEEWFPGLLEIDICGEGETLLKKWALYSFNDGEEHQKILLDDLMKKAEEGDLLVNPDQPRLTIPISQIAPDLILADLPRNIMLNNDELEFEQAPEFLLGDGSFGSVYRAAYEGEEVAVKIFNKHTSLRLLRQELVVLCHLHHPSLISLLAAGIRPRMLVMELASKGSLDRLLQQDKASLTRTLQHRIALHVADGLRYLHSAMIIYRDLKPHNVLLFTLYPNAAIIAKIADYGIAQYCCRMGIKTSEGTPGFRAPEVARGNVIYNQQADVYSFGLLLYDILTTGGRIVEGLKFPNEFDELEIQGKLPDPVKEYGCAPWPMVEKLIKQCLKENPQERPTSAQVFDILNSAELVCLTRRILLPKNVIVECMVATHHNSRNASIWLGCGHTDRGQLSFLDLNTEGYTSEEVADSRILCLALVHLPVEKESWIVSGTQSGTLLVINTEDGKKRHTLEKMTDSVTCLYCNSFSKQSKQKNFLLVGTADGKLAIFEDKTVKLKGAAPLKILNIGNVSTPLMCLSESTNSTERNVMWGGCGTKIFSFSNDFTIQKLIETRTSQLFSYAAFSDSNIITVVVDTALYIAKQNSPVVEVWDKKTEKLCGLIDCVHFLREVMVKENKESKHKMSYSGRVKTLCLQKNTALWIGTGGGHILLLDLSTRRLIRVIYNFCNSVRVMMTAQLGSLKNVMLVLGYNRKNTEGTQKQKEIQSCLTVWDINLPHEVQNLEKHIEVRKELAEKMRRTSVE
T2 sequence (P23458 875-1153 limits assumed): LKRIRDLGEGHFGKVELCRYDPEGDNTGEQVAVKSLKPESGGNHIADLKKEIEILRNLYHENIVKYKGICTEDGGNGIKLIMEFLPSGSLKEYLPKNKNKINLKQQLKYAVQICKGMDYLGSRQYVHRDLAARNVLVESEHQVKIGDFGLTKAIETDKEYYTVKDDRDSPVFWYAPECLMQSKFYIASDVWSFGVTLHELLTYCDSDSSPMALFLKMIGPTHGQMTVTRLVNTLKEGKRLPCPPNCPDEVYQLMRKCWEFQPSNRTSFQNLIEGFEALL
T4 sequence (Q5S007 970-2527 G2019S limits assumed): as the sequence (Q5S007 970-2527 limits assumed) above, with G1050S counted along it

Row | SMILES | pIC50 [1] | pIC50 [2] | pIC50 [3] | pIC50 [4]
1 | Cc1ccnnc1-c1ccc(Nc2cn(-c3c(Cl)cccc3Cl)nc2C(N)=O)cc1 [compound 45, 1-(2,6-dichlorophenyl)-4-((4-(4-methylpyridazin-3-yl)phenyl)amino)-1H-pyrazole-3-carboxamide] | 7.00 to 8.00 | 6.00 to 7.00 | > 8.00 | 7.00 to 8.00
2 | Cc1ccncc1-c1ccc(Nc2cn(-c3c(Cl)cccc3Cl)nc2C(N)=O)cn1 [compound 394, 1-(2,6-dichlorophenyl)-4-((4′-methyl-[2,3′-bipyridin]-5-yl)amino)-1H-pyrazole-3-carboxamide] | 6.00 to 7.00 | 6.00 to 7.00 | 6.00 to 7.00 | 6.00 to 7.00
3 | CC(C)n1cnnc1-c1ccc(Nc2cn(-c3c(Cl)cccc3Cl)nc2C(N)=O)cn1 [compound 400, 1-(2,6-dichlorophenyl)-4-((6-(4-isopropyl-4H-1,2,4-triazol-3-yl)pyridin-3-yl)amino)-1H-pyrazole-3-carboxamide] | 6.00 to 7.00 | 6.00 to 7.00 | 7.00 to 8.00 | 6.00 to 7.00
4 | NC(=O)c1nn(-c2c(Cl)cccc2Cl)cc1Nc1cnn(-c2ncccc2F)c1 [compound 386, 1-(2,6-dichlorophenyl)-4-((1-(3-fluoropyridin-2-yl)-1H-pyrazol-4-yl)amino)-1H-pyrazole-3-carboxamide] | 6.00 to 7.00 | 7.00 to 8.00 | 7.00 to 8.00 | 6.00 to 7.00
5 | NC(=O)c1nn(-c2c(Cl)cccc2Cl)cc1Nc1ccc(-n2cc3c(n2)CCOC3)cc1 [compound 71, 1-(2,6-dichlorophenyl)-4-((4-(6,7-dihydropyrano[4,3-c]pyrazol-2(4H)-yl)phenyl)amino)-1H-pyrazole-3-carboxamide] | 6.00 to 7.00 | 6.00 to 7.00 | 6.00 to 7.00 | 6.00 to 7.00
6 | Cc1cnccc1-c1ccc(Nc2cn(-c3c(Cl)cccc3Cl)nc2C(N)=O)cc1 [compound 260, 1-(2,6-dichlorophenyl)-4-((4-(3-methylpyridin-4-yl)phenyl)amino)-1H-pyrazole-3-carboxamide] | 6.00 to 7.00 | 7.00 to 8.00 | 6.00 to 7.00 | 6.00 to 7.00
7 | Cc1ncn(C)c1-c1ccc(Nc2cn(-c3c(Cl)cccc3Cl)nc2C(N)=O)cc1 [compound 53, 1-(2,6-dichlorophenyl)-4-((4-(1,4-dimethyl-1H-imidazol-5-yl)phenyl)amino)-1H-pyrazole-3-carboxamide] | 6.00 to 7.00 | 7.00 to 8.00 | 6.00 to 7.00 | 6.00 to 7.00
8 | CCc1cncnc1-c1ccc(Nc2cn(-c3c(Cl)cccc3Cl)nc2C(N)=O)cc1 [compound 52, 1-(2,6-dichlorophenyl)-4-((4-(5-ethylpyrimidin-4-yl)phenyl)amino)-1H-pyrazole-3-carboxamide] | 6.00 to 7.00 | 6.00 to 7.00 | 7.00 to 8.00 | 6.00 to 7.00
9 | CN=S1(=O)CCN(C(=O)c2ccc(Nc3cn(-c4c(Cl)cccc4Cl)nc3C(N)=O)cc2)CC1 [compound 466, 1-(2,6-dichlorophenyl)-4-((4-(1-(methylimino)-1-oxidothiomorpholine-4-carbonyl)phenyl)amino)-1H-pyrazole-3-carboxamide] | 6.00 to 7.00 | 7.00 to 8.00 | > 8.00 | 6.00 to 7.00
10 | NC(=O)c1nn(-c2c(Cl)cccc2Cl)cc1Nc1ccc(-c2nnc3n2CCCCC3)cc1 [compound 63, 1-(2,6-dichlorophenyl)-4-((4-(6,7,8,9-tetrahydro-5H-[1,2,4]triazolo[4,3-a]azepin-3-yl)phenyl)amino)-1H-pyrazole-3-carboxamide] | 7.00 to 8.00 | 6.00 to 7.00 | 7.00 to 8.00 | 7.00 to 8.00
11 | CC(C)(C)NC(=O)c1ccc(Nc2cn(-c3c(Cl)cccc3Cl)nc2C(N)=O)cc1 [compound 26, 4-((4-(tert-butylcarbamoyl)phenyl)amino)-1-(2,6-dichlorophenyl)-1H-pyrazole-3-carboxamide] | 6.00 to 7.00 | 7.00 to 8.00 | 7.00 to 8.00 | 6.00 to 7.00
12 | CCn1nc(C(F)(F)F)nc1-c1ccc(Nc2cn(-c3c(F)cccc3F)nc2C(N)=O)cc1 [compound 302, 1-(2,6-difluorophenyl)-4-((4-(1-ethyl-3-(trifluoromethyl)-1H-1,2,4-triazol-5-yl)phenyl)amino)-1H-pyrazole-3-carboxamide] | 6.00 to 7.00 | 7.00 to 8.00 | > 8.00 | 6.00 to 7.00
13 | Cc1cncnc1-c1ccc(Nc2cn(-c3c(Cl)cccc3Cl)nc2C(N)=O)cc1 [compound 51, 1-(2,6-dichlorophenyl)-4-((4-(5-methylpyrimidin-4-yl)phenyl)amino)-1H-pyrazole-3-carboxamide] | 6.00 to 7.00 | 7.00 to 8.00 | 7.00 to 8.00 | 6.00 to 7.00
14 | CN1CCC(NS(=O)(=O)c2ccc(Nc3cn(-c4c(Cl)cccc4Cl)nc3C(N)=O)cc2)CC1 [compound 89, 1-(2,6-dichlorophenyl)-4-((4-(N-(1-methylpiperidin-4-yl)sulfamoyl)phenyl)amino)-1H-pyrazole-3-carboxamide] | 6.00 to 7.00 | 6.00 to 7.00 | > 8.00 | 6.00 to 7.00
15 | N#Cc1cn(CCO)c(-c2ccc(Nc3cn(-c4c(Cl)cccc4Cl)nc3C(N)=O)cn2)n1 [compound 387, 4-((6-(4-cyano-1-(2-hydroxyethyl)-1H-imidazol-2-yl)pyridin-3-yl)amino)-1-(2,6-dichlorophenyl)-1H-pyrazole-3-carboxamide] | 6.00 to 7.00 | 7.00 to 8.00 | 7.00 to 8.00 | 6.00 to 7.00
16 | CC(C)(C)OC(=O)N1CCCC(NC(=O)c2ccc(Nc3cn(-c4c(F)cccc4Cl)nc3C(N)=O)cc2)C1 (stereo not shown) [compound 37, tert-butyl_3-(4-((3-carbamoyl-1-(2-chloro-6-fluorophenyl)-1H-pyrazol-4-yl)amino)benzamido)piperidine-1-carboxylate] | 6.00 to 7.00 | 6.00 to 7.00 | 6.00 to 7.00 | 6.00 to 7.00
17 | Cc1cnnn1-c1ccc(Nc2cn(-c3c(Cl)cccc3Cl)nc2C(N)=O)cc1 [compound 391, 1-(2,6-dichlorophenyl)-4-((4-(5-methyl-1H-1,2,3-triazol-1-yl)phenyl)amino)-1H-pyrazole-3-carboxamide] | 6.00 to 7.00 | 7.00 to 8.00 | 7.00 to 8.00 | 6.00 to 7.00
18 | CCn1ncnc1-c1ccc(Nc2cn(-c3c(Cl)cccc3Cl)nc2C(N)=O)cc1 [compound 47, 1-(2,6-dichlorophenyl)-4-((4-(1-ethyl-1H-1,2,4-triazol-5-yl)phenyl)amino)-1H-pyrazole-3-carboxamide] | 6.00 to 7.00 | 6.00 to 7.00 | 7.00 to 8.00 | 6.00 to 7.00
19 | NC(=O)c1nn(-c2c(Cl)cccc2Cl)cc1Nc1ccc(-c2nccn2CC(F)(F)F)cc1 [compound 268, 1-(2,6-dichlorophenyl)-4-((4-(1-(2,2,2-trifluoroethyl)-1H-imidazol-2-yl)phenyl)amino)-1H-pyrazole-3-carboxamide] | 6.00 to 7.00 | 7.00 to 8.00 | 7.00 to 8.00 | 6.00 to 7.00
20 | NC(=O)c1nn(-c2c(Cl)cccc2Cl)cc1Nc1ccc(C(=O)N2CC[C@@H](F)C2)cc1 [compound 315, (R)-1-(2,6-dichlorophenyl)-4-((4-(3-fluoropyrrolidine-1-carbonyl)phenyl)amino)-1H-pyrazole-3-carboxamide] | 6.00 to 7.00 | 7.00 to 8.00 | > 8.00 | 6.00 to 7.00
21 | CCn1cc(C(F)(F)F)nc1-c1ccc(Nc2cn(-c3c(F)cccc3F)nc2C(N)=O)cc1 [compound 304, 1-(2,6-difluorophenyl)-4-((4-(1-ethyl-4-(trifluoromethyl)-1H-imidazol-2-yl)phenyl)amino)-1H-pyrazole-3-carboxamide] | 7.00 to 8.00 | 6.00 to 7.00 | 7.00 to 8.00 | 7.00 to 8.00
22 | Cc1ncnn1-c1ccc(Nc2cn(-c3c(Cl)cccc3Cl)nc2C(N)=O)cc1 [compound 326, 1-(2,6-dichlorophenyl)-4-((4-(5-methyl-1H-1,2,4-triazol-1-yl)phenyl)amino)-1H-pyrazole-3-carboxamide] | 6.00 to 7.00 | 7.00 to 8.00 | 7.00 to 8.00 | 6.00 to 7.00
